In patent publication US20170298051A1, “ACTIVATOR OF ADIPONECTIN RECEPTOR” (THE UNIVERSITY OF TOKYO, priority 2013, published 2017):

What was measured:
[1] = target: T1, AdipoR1 (Mus musculus, UniProt Q91VH1); experiment: Measurement of AMPK phosphorylation ability (Assay 1), differentiated C2C12 cells, Western blotting; type: cell-based; conditions: 10 μM, 10 minutes
T1 construct: C2C12 cells (ATCC; CRL-1772, medium; host or cells: differentiated C2C12
T1 sequence (Q91VH1 1-375): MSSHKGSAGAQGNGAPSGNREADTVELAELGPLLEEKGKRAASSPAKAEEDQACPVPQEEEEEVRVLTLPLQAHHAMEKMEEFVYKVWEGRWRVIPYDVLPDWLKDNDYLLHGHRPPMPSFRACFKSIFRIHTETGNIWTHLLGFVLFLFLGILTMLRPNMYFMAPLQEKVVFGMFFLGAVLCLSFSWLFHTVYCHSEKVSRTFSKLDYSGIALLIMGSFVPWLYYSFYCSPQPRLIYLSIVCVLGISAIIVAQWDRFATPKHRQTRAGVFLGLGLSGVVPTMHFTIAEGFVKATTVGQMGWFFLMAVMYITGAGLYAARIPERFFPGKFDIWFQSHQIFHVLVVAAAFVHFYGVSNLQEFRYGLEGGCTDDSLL
Experimental: (§1) The AMPK phosphorylation ability of the respective compounds according to the present invention was measured by using differentiated C2C12 cells or HEK 293T cells.
C2C12 cells (ATCC; CRL-1772, medium; DMEM, 10% FBS) were cultured in a 12- or 24-well plate until they reached 100% confluency (37° C., 5% CO2).
The medium was changed to 2.5% Horse Serum (HS) and differentiation was started. The medium (DMEM, 2.5% HS) was replaced every three days.
After starvation, a test compound listed in Table 12 (concentration: 10 μM) was added thereto, and after 10 minutes, the medium was discarded and the plate was frozen with liquid nitrogen.
(§2) To the 12- or 24-well cell plate which had been frozen was added 100 or 150 μL of Cell lysis buffer pH 7.4 (50 mM HEPES (pH 7.4), 2 mM sodium orthovanadate, 10 mM sodium pyrophosphate, 10 mM NaF, 2 mM EDTA, 2 mM EGTA, 0.1% (v/v) NP-40, 0.2 mM PMSF), and the cells were scraped off with a cell scraper, suspended and transferred into a micro centrifugal tube. And then, the cells were ultrasonically crushed (1 second×3 times) with a sonicator. Centrifugation was performed at 4° C. at 15,000 rpm for 15 minutes, and the supernatant was recovered into a new tube.
(§3) To 100 μL of the supernatant was added 25 μL of 5× sample buffer (280 mM Tris-HCl (pH 6.9), 40% glycerol, 10% (3-mercaptoethanol, 13% SDS, a small amount of bromophenol blue) and mixed together. The rest of the supernatant was used for protein quantification, and the protein concentrations were uniformed by adding 1× sample buffer depending on the concentration of each sample.
(§4) An electrophoresis chamber was filled with 1× SDS buffer (25 mM Tris-HCl, 250 mM glycine, 0.1% SDS), and the sample was applied to a well of polyacrylamide gel. Electrophoresis was performed until the bromophenol blue in the sample reached to the bottom of the gel.
(§5) A filter paper was soaked in 1× Transfer buffer sufficiently, above which the PVDF membrane and the gel after electrophoresis were stacked in this order, and thereabove a filter paper which had been soaked in 1× Transfer buffer sufficiently was further stacked, from which an air was removed and the resultant was set in semi-dry type transfer apparatus and transferred (7V, 35 minutes).
(§6) An unnecessary portion of the blotted membrane was cutoff, and the rest was immediately soaked in blocking buffer (5% skimmed milk in Rinse buffer), and shaken at room temperature at 40 rpm for 3 hours.
(§7) After blocking, the membrane was transferred into Rinse buffer, and washed at room temperature for 10 minutes while shaking. The membrane was soaked in a primary antibody solution (AMPK alpha Antibody (Cell signaling; #2532) 1/1,000 in Rinse buffer, Phospho-AMPK alpha (Thr172) (40H9) antibody (Cell signaling; #2535) 1/1,000 in Rinse buffer), and shaken at 4° C. at 40 rpm overnight.
(§8) The membrane was soaked in a secondary antibody solution (goat anti-rabbit IgG-HRP Antibody (Santa Cruz; sc-2030) 1/2,000 in Rinse buffer), and shaken at room temperature at 40 rpm for 1 hour.
(§9) After the membrane was washed for 45 minutes in the same way as after the primary antibody reaction, the membrane was soaked in a chemiluminescent reaction solution (ECL Western Blotting Detection Reagents, GE Healthcare) for about 1 minute. An excess of the reaction solution was removed, and then the membranes were arranged on a transparent film and sandwiched with it, with which an X-ray film was exposed in a darkroom (for about several seconds to 60 seconds) to develop the film.
(§10) The X-ray film was scanned to take the image, for which the band was measured by using the image analysis software “Image J” to determine the respective amounts of pAMPK and AMPK.

[2] = test system: AdipoR1; experiment: Measurement of AMPK phosphorylation ability (Assay 2), C2C12 cells with unrelated or AdipoR1 siRNA; type: cell-based, Mouse
Experimental: C2C12 cells (ATCC; CRL-1772, medium; DMEM, 10% Fetal Bovine Serum (FBS)) were cultured in a 12- or 24-well plate until they reached 100% confluency (37° C., 5% CO2). The medium was changed to DMEM, 2.5% Horse Serum (HS) and differentiation was started. The medium (DMEM, 2.5% HS) was replaced two days after the start of differentiation. The medium (DMEM, 2.5% HS) was further replaced two days after that.
(§11) On the next day following the replacement of the medium, first, 1 μL of Lipofectamine RNAiMAX and 50 μL of OPTI-MEM were mixed, and then 5 μM siRNA (sense siRNA sequence: […]tt (SEQ ID NO: 1)) and 50 μL of OPTI-MEM were mixed and the resultants were left to stand at room temperature for 5 minutes. And then, the 1 μL Lipofectamine RNAiMAX/50 μL OPTI-MEM and the 5 μM siRNA/50 μL OPTI-MEM were mixed, and the resultant was left to stand at room temperature for 10 minutes, which was added to the cells.
After 5 minutes, the medium (DMEM, 2.5 HS) was replaced, and after starvation on the next day, a test compound listed in Table 12 was added thereto. After 10 minutes, the medium was discarded and the plate was frozen with liquid nitrogen.
(§12) The respective amounts of pAMPK and AMPK were determined in the same way as in the above Assay 1.

[3] = target: T2, AdipoR1 (Homo sapiens, UniProt Q96A54); experiment: Measurement of AMPK phosphorylation ability (Assay 2), HEK 293T cells with unrelated or AdipoR1 siRNA; type: cell-based; parameters: HEK 293T cells (ATCC; CRL-3216, medium; host or cells: HEK 293T
T2 sequence (Q96A54 1-375): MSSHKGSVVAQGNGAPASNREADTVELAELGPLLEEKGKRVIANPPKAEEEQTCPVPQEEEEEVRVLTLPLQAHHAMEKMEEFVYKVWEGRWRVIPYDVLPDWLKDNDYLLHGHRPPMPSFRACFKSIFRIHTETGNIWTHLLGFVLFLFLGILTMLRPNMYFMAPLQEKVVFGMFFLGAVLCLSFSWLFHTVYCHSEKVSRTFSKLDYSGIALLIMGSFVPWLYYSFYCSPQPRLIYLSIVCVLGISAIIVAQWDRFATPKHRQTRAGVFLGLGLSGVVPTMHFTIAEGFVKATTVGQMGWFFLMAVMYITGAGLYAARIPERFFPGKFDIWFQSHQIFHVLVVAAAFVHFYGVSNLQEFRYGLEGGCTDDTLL
Experimental: HEK 293T cells (medium; DMEM, 10% FBS) were cultured in a 24-well plate until they reached 60% confluency (37° C., 5% CO2).
as §11, with “First,” for “On the next day following the replacement of the medium, first,”
After 5 minutes, the medium (DMEM, 10% FBS) was replaced, and after starvation on the next day, a test compound listed in Tables 10 and 11 was added thereto. After 10 minutes, the medium was discarded and the plate was frozen with liquid nitrogen.
as §12

[4] = target: T2, AdipoR1; experiment: Measurement of AMPK phosphorylation ability (Assay 1), HEK 293T cells, Western blotting; type: cell-based; parameters: HEK 293T cells (ATCC; CRL-3216, medium; host or cells: HEK 293T; conditions: 10 minutes
Experimental: as §1
HEK 293T cells (ATCC; CRL-3216, medium; DMEM, Fetal Bovine Serum (FBS)) were cultured in a 12- or 24-well plate until they reached 100% confluency (37° C., 5% CO2).
After starvation, a test compound listed in Tables 10 and 11 (concentration: 25 μM, 50 μM) was added thereto, and after 10 minutes, the medium was discarded and the plate was frozen with liquid nitrogen.
as §2, §3, §4, §5, §6, §7, §8, §9, §10

Row | SMILES | pAMPK/AMPK (%) [1] [%] | pAMPK/AMPK (ratio) siRNA, AdipoR1 siRNA [2] [ratio] | pAMPK/AMPK (ratio) siRNA, unrelated siRNA [2] [ratio] | pAMPK/AMPK (ratio) siRNA, AdipoR1 siRNA [3] [ratio] | pAMPK/AMPK (ratio) siRNA, unrelated siRNA [3] [ratio] | pAMPK/AMPK (%) ([4]; 25 μM) | pAMPK/AMPK (%) ([4]; 50 μM)
1 | Cc1ccccc1CN1CCC(Oc2ccc(C(=O)NCc3ccccn3)cc2)CC1 [No. 198637] | 87.39 | 2.51 | 2.24 | – | – | – | –
2 | Cc1cccc(CN2CCC(Oc3ccc(C(=O)NC4CCCC4)cc3Cl)CC2)n1 [No. 492284] | 90.14 | 1.88 | 2.05 | – | – | – | –
3 | COc1ccccc1N1CCN(CCC(=O)Nc2ccccc2Cl)CC1 [No. 189640] | 82.40 | 1.82 | 1.85 | – | – | – | –
4 | O=C(NCc1ccncc1)c1ccc(OC2CCN(Cc3ccoc3)CC2)cc1 [No. 196462] | 82.72 | 2.58 | 2.06 | – | – | – | –
5 | COc1cccc(NC(=O)c2ccc(CN3CCN(Cc4ccccc4)CC3)cc2)c1 [No. 103694] | 81.05 | 3.34 | 4.67 | – | – | – | –
6 | COCCNC(=O)c1ccc(OC2CCN(Cc3ccc(OC)cc3F)CC2)c(Cl)c1 [No. 197248] | 89.63 | 2.55 | 2.09 | – | – | – | –
7 | COc1ccccc1N1CCN(CCC(=O)Nc2cccc(Cl)c2)CC1 [No. 189474] | 88.87 | 1.62 | 2.00 | – | – | – | –
8 | O=C(NC1CCCC1)c1ccc(OC2CCN(Cc3cccc(O)c3)CC2)c(Cl)c1 [No. 251327] | 83.18 | 3.15 | 2.85 | – | – | – | –
9 | CC(C)N(Cc1cnn(C)c1)C(=O)c1ccc(OC2CCN(Cc3ccccn3)CC2)cc1 [No. 206685] | 90.15 | 2.39 | 1.76 | – | – | – | –
10 | O=C(NCC[C@@H]1C[C@@H]2C=C[C@H]1C2)c1ccc(OC2CCN(Cc3ccccn3)CC2)cc1 [No. 260544] | 81.90 | 4.12 | 3.79 | – | – | – | –
11 | O=C(NCCc1ccc(Cl)cc1)c1ccc(OC2CCN(Cc3ccccn3)CC2)cc1 [No. 264785] | 80.62 | 3.58 | 3.70 | – | – | – | –
12 | O=C(NC1CCN(Cc2ccccc2)CC1)c1ccc(Cl)c(Cl)c1 [No. 550212] | 80.04 | 2.14 | 1.91 | – | – | – | –
13 | C#CCN(Cc1ccco1)C(=O)c1ccc(OC2CCN(Cc3ccccn3)CC2)cc1 [No. 268949] | 86.36 | 2.82 | 3.10 | – | – | – | –
14 | COCc1ccc(CN2CCC(Oc3ccc(C(=O)NC4CCCC4)cc3Cl)CC2)o1 [No. 195831] | 99.10 | 2.98 | 2.88 | – | – | – | –
15 | CCOc1cccc(CN2CCC(Oc3ccc(C(=O)NCCOC)cc3Cl)CC2)c1 [No. 214617] | 91.97 | 2.78 | 2.21 | – | – | – | –
16 | CCOCCCNC(=O)c1ccc(OC2CCN(CC(C)(C)C)CC2)c(Cl)c1 [No. 209705] | 81.28 | 1.81 | 1.52 | – | – | – | –
17 | COCCNC(=O)c1ccc(OC2CCN([C@@H](C)COc3ccccc3)CC2)c(Cl)c1 [No. 211156] | 93.79 | 2.59 | 2.36 | – | – | – | –
18 | O=C(COc1ccc(C(=O)c2ccc(Cl)cc2)cc1)NC1CCN(Cc2ccccc2)CC1 [Compound 11] | – | – | – | 3.75 | 2.58 | 83.12 | 102.94
19 | O=C(COc1ccc(C(F)(F)F)cc1)NC1CCN(C(=O)c2ccccc2F)CC1 [Compound 34] | – | – | – | 2.01 | 2.32 | 80.64 | 80.50
